From ChEMBL document CHEMBL1128268, “Tryptophan-derived NK1 antagonists: conformationally constrained heterocyclic bioisosteres of the ester linkage” (J Med Chem, 1995) come the findings set out here.

SMILES strings stand for the structures.

Chain of Substance-P receptor (P25103 whole entry): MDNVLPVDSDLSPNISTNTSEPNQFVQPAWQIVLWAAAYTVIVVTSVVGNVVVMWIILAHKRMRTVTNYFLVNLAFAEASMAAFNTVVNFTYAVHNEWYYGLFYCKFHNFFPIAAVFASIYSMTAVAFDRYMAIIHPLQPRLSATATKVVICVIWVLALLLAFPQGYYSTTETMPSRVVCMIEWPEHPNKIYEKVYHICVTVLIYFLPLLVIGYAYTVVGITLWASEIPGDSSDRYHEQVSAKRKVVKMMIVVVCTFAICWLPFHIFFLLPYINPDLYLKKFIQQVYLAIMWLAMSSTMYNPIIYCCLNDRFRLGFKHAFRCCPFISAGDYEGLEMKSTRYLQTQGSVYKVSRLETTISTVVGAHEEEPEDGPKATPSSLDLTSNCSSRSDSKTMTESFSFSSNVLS

This assay has as its target Substance-P receptor (Homo sapiens, UniProt P25103). The experiment in a line: Binding affinity at human Tachykinin receptor 1 expressed in CHO cells by [125 I]Trp8-substance P displacement. In kind it is cell-based.
As to `O=C1NC(Cc2c[nH]c3ccccc23)CN1Cc1cc(C(F)(F)F)cc(C(F)(F)F)c1` (centres undefined), the IC50 is 267 nM.
Then `C=CCC1(Cc2c[nH]c3ccccc23)OC(=O)N(Cc2cc(C(F)(F)F)cc(C(F)(F)F)c2)C1=O` (centres undefined), with 31 nM.
Compound `CC1(Cc2c[nH]c3ccccc23)OC(=O)N(Cc2cc(C(F)(F)F)cc(C(F)(F)F)c2)C1=O` (centres undefined) returned an IC50 of 11 nM.
Then `CN1C(=O)N(Cc2cc(C(F)(F)F)cc(C(F)(F)F)c2)C(=O)C1Cc1c[nH]c2ccccc12` (centres undefined), with 153 nM.
Then `Cc1cc(C)cc(CN2C(=O)OC(Cc3c[nH]c4ccccc34)C2=O)c1` (centres undefined), with 683 nM.
Then `O=C1CNC(Cc2c[nH]c3ccccc23)CN1Cc1cc(C(F)(F)F)cc(C(F)(F)F)c1` (centres undefined), with 243 nM; and `FC(F)(F)c1cc(CN2CCNC(Cc3c[nH]c4ccccc34)C2)cc(C(F)(F)F)c1` (centres undefined), with 567 nM; and `O=C1OC(Cc2c[nH]c3ccccc23)C(=O)N1Cc1cc(Cl)cc(Cl)c1` (centres undefined), with 273 nM.
`O=C1C(Cc2c[nH]c3ccccc23)N(C(=O)Nc2ccccc2)C(=O)N1Cc1cc(C(F)(F)F)cc(C(F)(F)F)c1` (centres undefined) had an IC50 of 220 nM. This IC50 and that of the compound before are within 1.5-fold of each other.
In the case of `COc1cc(CN2C(=O)OC(Cc3c[nH]c4ccccc34)C2=O)cc(OC)c1` (centres undefined), the half-inhibitory concentration (IC50) is 7370 nM.
Then `O=C1OC(Cc2c[nH]c3ccccc23)C(=O)N1Cc1cccc(C(F)(F)F)c1` (centres undefined), with 2670 nM; and `O=C1NC(Cc2c[nH]c3ccccc23)CN(Cc2cc(C(F)(F)F)cc(C(F)(F)F)c2)C1=O` (centres undefined), with 400 nM; and `O=C1NC(Cc2c[nH]c3ccccc23)C(=O)N1Cc1cc(C(F)(F)F)cc(C(F)(F)F)c1` (centres undefined), with 317 nM.
Then `O=C1CC(Cc2c[nH]c3ccccc23)C(=O)N1Cc1cc(C(F)(F)F)cc(C(F)(F)F)c1` (centres undefined), with 203 nM.
Then `CNC(=O)N1C(=O)N(Cc2cc(C(F)(F)F)cc(C(F)(F)F)c2)C(=O)C1Cc1c[nH]c2ccccc12` (centres undefined), with 63 nM; and `O=C1C(Cc2c[nH]c3ccccc23)N(Cc2ccccc2)C(=O)N1Cc1cc(C(F)(F)F)cc(C(F)(F)F)c1` (centres undefined), with 310 nM.
Turning to `O=C1OC(Cc2c[nH]c3ccccc23)C(=O)N1Cc1cc(F)cc(F)c1` (centres undefined), the IC50 was 4280 nM.
Then `O=C1OC(Cc2c[nH]c3ccccc23)C(=O)N1Cc1cc(C(F)(F)F)cc(C(F)(F)F)c1` (racemic), with 22 nM.
Then `O=C1OC(Cc2c[nH]c3ccccc23)C(=O)N1Cc1cc(C(F)(F)F)cc(C(F)(F)F)c1` (single isomer, unassigned; (-)), with 26 nM.
